According to article PMC7402526, “An in vitro quantitative systems pharmacology approach for deconvolving mechanisms of drug-induced, multilineage cytopenias” (PLoS Computational Biology, 2020):

Tests used:
[1] = test system: monocyte progenitors (monocyte prog); assay: MLTA, MonoP: concentration-response and QSP model fit; format: cell-based, human; details: Homo sapiens, Monocyte, 144 h
Summary of the method: (§1)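 Freeze-thawed primary human bone marrow CD34+ cells were cultured 6 days in SFEM II with a cytokine cocktail, drug added on day 0. Subsets were counted by 17-parameter flow cytometry with TruCount beads and normalized to vehicle wells. An Emax QSP model (Emax 0–2, L1 regularization) was fitted to these counts.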

[2] = test system: granulocyte progenitor (Gran-lin prog); assay: MLTA, GranP: concentration-response and QSP model fit; format: cell-based, human; details: Homo sapiens, 144 h
Summary of the method: as §1

[3] = test system: hematopoietic stem cells (HSCs); assay: Multi-lineage toxicity assay (MLTA), HSCs: concentration-response and QSP model fit; format: cell-based, human; design: EmaxAP,HSC / EmaxT,HSC / Emax_drug_HSC: unitless, 0–2; ≤1 anti-proliferative, >1 adds cell killing
Summary of the method: (§2)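 Values derive from fitting a QSP Emax model (EmaxT 0–2, above 1 denoting added cell killing) to vehicle-normalized lineage counts. Counts were obtained by 17-parameter flow after 6-day culture of human bone marrow CD34+ cells with test article.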

[4] = test system: total viable cells (totalViableCells); assay: MLTA, total live cells concentration-response; format: cell-based; details: Homo sapiens, 144 h, 6 days, normalized to vehicle control, read-out: total_live normalized cell count
Protocol: A custom optimized cytokine cocktail was developed using commercially available cytokines (Peprotech, New Jersey) to facilitate simultaneous multi-lineage differentiation and self-renewal of freeze-thawed primary human bone marrow-derived CD34+ cells in SFEM II media (cells and media from StemCell Technologies, Vancouver). Cultures were carried out in ultra-low attachment 96-well plates (Corning, New York) with test article added on day 0 and cultured at 37°C, 85% relative humidity, and 5% CO2 for six days before interrogating drug impact via 17-parameter flow cytometry.
The flow cytometry panel used to define hematopoietic subsets was composed of CD34-PECy7, CD90-PECY5, CD38-AF488, CD371-PE, CD45Ra-BV421, CD14-BV605, CD42b-AF647, CD10-PEDazzle594, CD235a-PerCPCy5.5 (BioLegend, California), CD15-BUV395, CD41a-APCH7, CD71-BV786 (BD Biosciences, California), and DAPI for dead cell exclusion (ThermoFisher, California). In short, Day 6 cells were harvested, FcR-blocked (FcR binding inhibitor, ThermoFisher), surface-stained, then analyzed in a buffer containing TruCount Control Beads using a BD LSR Fortessa SORP fitted with a high-throughput sampler (BD Biosciences, California). Data was analyzed in Diva 6.0.2 and exported to CSV where after all cell data was transformed to cell per mL then normalized on a per-donor basis to untreated control wells to determine drug impact.
Donor material was collected and cultured as described above. The number of replicate donor samples per drug ranged from 2–7 and varied per drug (S1 Table). Drug treatment was added at time 0 and cells were maintained in culture for 6 days. Concentrations tested for each drug compound are contained in S1 Table. Concentrations were selected to span a range that is clinically useful. Following treatment, cell populations were measured using flow cytometry. We extracted cell counts from flow cytometry data, normalized to bead counts, and corrected for well volume.
Each well was normalized to the average of six vehicle control wells. For drugs that were tested across multiple runs of the assay, vehicle-normalized donor data were pooled, and we used the average of these pooled data for further modeling. Normalized data used as model inputs are included in S1 Table.

[5] = test system: early erythroid cells (Eryth I); assay: MLTA, ErythI: concentration-response and QSP model fit; format: cell-based, human; details: Homo sapiens, 144 h
Summary of the method: as §1

monocytes (monocyte-lin) = assay: MLTA, Mono: concentration-response and QSP model fit; format: cell-based, human; details: Homo sapiens, Monocyte, 144 h
Summary of the method: as §1

[6] = test system: lymphocyte progenitors (LymP); assay: MLTA, LymP: concentration-response and QSP model fit; format: cell-based, human; details: Homo sapiens, Lymphocyte, 144 h
Summary of the method: as §2

## CCN1CCN(Cc2ccc(Nc3ncc(F)c(-c4cc(F)c5nc(C)n(C(C)C)c5c4)n3)nc2)CC1 [abemaciclib]
[1]; dose 0.2 nM, 6 days, normalized to vehicle control, read-out: MonoPs normalized cell count
  activity at 0.0002 µM: 98.7%
[1]; dose 1 nM, 6 days, normalized to vehicle control, read-out: MonoPs normalized cell count
  activity at 0.001 µM: 99.4%
[1]; dose 5 nM, 6 days, normalized to vehicle control, read-out: MonoPs normalized cell count
  activity at 0.005 µM: 80.6%
[1]; dose 25 nM, 6 days, normalized to vehicle control, read-out: MonoPs normalized cell count
  activity at 0.025 µM: 27.5%
[1]; dose 100 nM, 6 days, normalized to vehicle control, read-out: MonoPs normalized cell count
  activity at 0.1 µM: 8.19%
[1]; dose 500 nM, 6 days, normalized to vehicle control, read-out: MonoPs normalized cell count
  activity at 0.5 µM: 1.58%
[1]; dose 2500 nM, 6 days, normalized to vehicle control, read-out: MonoPs normalized cell count
  activity at 2.5 µM: 0.0911%
[1]; parameter from QSP model fitting, read-out: Emax_drug_MonoP
  Emax: 0.17%
[2]; dose 0.2 nM, 6 days, normalized to vehicle control, read-out: GranPs normalized cell count
  activity at 0.0002 µM: 95.1%
[2]; dose 1 nM, 6 days, normalized to vehicle control, read-out: GranPs normalized cell count
  activity at 0.001 µM: 100%
[2]; dose 5 nM, 6 days, normalized to vehicle control, read-out: GranPs normalized cell count
  activity at 0.005 µM: 86.6%
[2]; dose 25 nM, 6 days, normalized to vehicle control, read-out: GranPs normalized cell count
  activity at 0.025 µM: 52%
[2]; dose 100 nM, 6 days, normalized to vehicle control, read-out: GranPs normalized cell count
  activity at 0.1 µM: 24.8%
[2]; dose 500 nM, 6 days, normalized to vehicle control, read-out: GranPs normalized cell count
  activity at 0.5 µM: 2.43%
[2]; dose 2500 nM, 6 days, normalized to vehicle control, read-out: GranPs normalized cell count
  activity at 2.5 µM: 0.0287%
[2]; parameter from QSP model fitting, read-out: Emax_drug_GranP
  Emax: 0.23%
[3]; Homo sapiens, Hematopoietic stem cell, 144 h, QSP model fit of 6-day MLTA data
  EC50: 111 nM
[3]; Homo sapiens, Hematopoietic stem cell, 144 h, dose 0.2 nM, 6 days, normalized to vehicle control, read-out: HSCs normalized cell count
  activity at 0.0002 µM: 89.3%
[3]; Homo sapiens, Hematopoietic stem cell, 144 h, dose 1 nM, 6 days, normalized to vehicle control, read-out: HSCs normalized cell count
  activity at 0.001 µM: 103%
[3]; Homo sapiens, Hematopoietic stem cell, 144 h, dose 5 nM, 6 days, normalized to vehicle control, read-out: HSCs normalized cell count
  activity at 0.005 µM: 98.4%
[3]; Homo sapiens, Hematopoietic stem cell, 144 h, dose 25 nM, 6 days, normalized to vehicle control, read-out: HSCs normalized cell count
  activity at 0.025 µM: 66.7%
[3]; Homo sapiens, Hematopoietic stem cell, 144 h, dose 100 nM, 6 days, normalized to vehicle control, read-out: HSCs normalized cell count
  activity at 0.1 µM: 25.9%
[3]; Homo sapiens, Hematopoietic stem cell, 144 h, dose 500 nM, 6 days, normalized to vehicle control, read-out: HSCs normalized cell count
  activity at 0.5 µM: 5.33%
[3]; Homo sapiens, Hematopoietic stem cell, 144 h, dose 2500 nM, 6 days, normalized to vehicle control, read-out: HSCs normalized cell count
  activity at 2.5 µM: 2.74%
[3]; Homo sapiens, Hematopoietic stem cell, 144 h, parameter from QSP model fitting, read-out: Emax_drug_HSC
  Emax: 91%
[3]; anti-proliferation component, min(1, EmaxT)
  EmaxAP,HSC: 0.910
[4]; dose 0.2 nM
  viability at 0.0002 µM: 99.1%
[4]; dose 1 nM
  viability at 0.001 µM: 108%
[4]; dose 5 nM
  viability at 0.005 µM: 96%
[4]; dose 25 nM
  viability at 0.025 µM: 47.7%
[4]; dose 100 nM
  viability at 0.1 µM: 17.4%
[4]; dose 500 nM
  viability at 0.5 µM: 3.05%
[4]; dose 2500 nM
  viability at 2.5 µM: 0.301%
[5]; QSP model fit of 6-day MLTA data, read-out: EC50ErythI
  EC50: 29.2 nM
[5]; dose 0.2 nM, 6 days, normalized to vehicle control, read-out: ErythI normalized cell count
  activity at 0.0002 µM: 107%
[5]; dose 1 nM, 6 days, normalized to vehicle control, read-out: ErythI normalized cell count
  activity at 0.001 µM: 116%
[5]; dose 5 nM, 6 days, normalized to vehicle control, read-out: ErythI normalized cell count
  activity at 0.005 µM: 97.8%
[5]; dose 25 nM, 6 days, normalized to vehicle control, read-out: ErythI normalized cell count
  activity at 0.025 µM: 47.1%
[5]; dose 100 nM, 6 days, normalized to vehicle control, read-out: ErythI normalized cell count
  activity at 0.1 µM: 20.1%
[5]; dose 500 nM, 6 days, normalized to vehicle control, read-out: ErythI normalized cell count
  activity at 0.5 µM: 4.76%
[5]; dose 2500 nM, 6 days, normalized to vehicle control, read-out: ErythI normalized cell count
  activity at 2.5 µM: 0.613%
[5]; parameter from QSP model fitting, read-out: Emax_drug_ErythroidI
  Emax: 102%
Monocytes (monocyte-lin); QSP model fit of 6-day MLTA data
  EC50: 46.2 nM
Monocytes (monocyte-lin); dose 0.2 nM, 6 days, normalized to vehicle control, read-out: Mon normalized cell count
  activity at 0.0002 µM: 92.9%
Monocytes (monocyte-lin); dose 1 nM, 6 days, normalized to vehicle control, read-out: Mon normalized cell count
  activity at 0.001 µM: 109%
Monocytes (monocyte-lin); dose 5 nM, 6 days, normalized to vehicle control, read-out: Mon normalized cell count
  activity at 0.005 µM: 87%
Monocytes (monocyte-lin); dose 25 nM, 6 days, normalized to vehicle control, read-out: Mon normalized cell count
  activity at 0.025 µM: 41.8%
Monocytes (monocyte-lin); dose 100 nM, 6 days, normalized to vehicle control, read-out: Mon normalized cell count
  activity at 0.1 µM: 10.9%
Monocytes (monocyte-lin); dose 500 nM, 6 days, normalized to vehicle control, read-out: Mon normalized cell count
  activity at 0.5 µM: 3.74%
Monocytes (monocyte-lin); dose 2500 nM, 6 days, normalized to vehicle control, read-out: Mon normalized cell count
  activity at 2.5 µM: 0.588%
Monocytes (monocyte-lin); parameter from QSP model fitting, read-out: Emax_drug_Mono
  Emax: 23.1%
[6]; dose 0.2 nM, 6 days, normalized to vehicle control, read-out: LymP normalized cell count
  activity at 0.0002 µM: 93.5%
[6]; dose 1 nM, 6 days, normalized to vehicle control, read-out: LymP normalized cell count
  activity at 0.001 µM: 99.4%
[6]; dose 5 nM, 6 days, normalized to vehicle control, read-out: LymP normalized cell count
  activity at 0.005 µM: 92.9%
[6]; dose 25 nM, 6 days, normalized to vehicle control, read-out: LymP normalized cell count
  activity at 0.025 µM: 38.9%
[6]; dose 100 nM, 6 days, normalized to vehicle control, read-out: LymP normalized cell count
  activity at 0.1 µM: 22.1%
[6]; dose 500 nM, 6 days, normalized to vehicle control, read-out: LymP normalized cell count
  activity at 0.5 µM: 22.3%
[6]; dose 2500 nM, 6 days, normalized to vehicle control, read-out: LymP normalized cell count
  activity at 2.5 µM: 7.46%
[6]; parameter from QSP model fitting, read-out: Emax_drug_LymP
  Emax: 0.16%
